Measurements as given in patent US7351744B2, “Naphthalene derivatives as termite repellents and toxicants” (Board of Supervisors of Louisiana State University and …, priority 2003, dated 2008).

Test system: C. formosanus workers
Test: whole plant or invertebrate
Type: in vivo, Coptotermes formosanus
Conditions: for Consumption (mg) day 8: wood slice
Protocol: Three-chambered transparent plastic containers as described in Example 4 were used to test the effectiveness of 2′-acetonaphthone as a barrier to prevent termites from reaching a food source. Each tested concentration of 2′-acetonaphthone was dissolved in 60 ml ethanol and mixed with 600 g of sand. For a control, 600 g of sand was mixed with 60 ml ethanol. The untreated and treated sand were placed in holding containers, and kept overnight at ambient conditions for solvent evaporation. In each container, sand was mixed with 60 ml DDH2O. Into the middle chamber, 110 g of either treated or untreated sand was gently added, packed, and leveled to clearly see tunnels. Six replicates were used for each concentration and control. Weighed balsa wood slices (0.159 cm×3.5 cm×6.0 cm, Ochroma lagopus Swartz) were placed in one of the two lateral chambers and wetted with 1 ml DDH2O. Into each container, 200 workers and 20 soldiers were released in the opposite lateral chamber from the wood slice. Termites were thus required to cross through the treated sand in the middle chamber to reach the food source. Containers were covered, and incubated in complete darkness at 27.4° C. and 70% RH. If necessary, 1 ml DDH2O was added to the sand and wood slice twice a week to maintain proper moisture. Three separate experiments were conducted using the same technique with different colonies.
In the first experiment, termites from Colony BS were used, and tested concentrations of 2′-acetonaphthone were 0.0, 16.67, 33.33, 50.0, 100.0, and 200.0 mg/kg sand. The number of dead workers was recorded daily to day 6. On day 6, the number of living workers in the releasing chamber was also recorded, and the bottoms of the three-chambered containers were scanned (ScanJet 4C, Hewlett-Packard, Palo Alto, Calif.). The images were printed in actual size, and the tunnel areas measured. After 8 days, the total number of living workers in each container was recorded; and the wood slices were gently cleaned using deionized water with a small brush. The slices were then oven dried at 60° C. for 3 h and reweighed. The difference in weight of the wood slices from the initial weighing was used to calculate food consumption.
The experiment was repeated a third time to further test for molting failures. The protocol was described as above. Five concentrations of 2′-acetonaphthone (4.15, 8.33, 16.67, 33.33, and 66.67 mg/kg sand) were evaluated using termites from colony WB. Tunnels were scanned, printed, and areas measured on days 2, 3, 4 and 7. Percent survival and food consumption were calculated on day 12 as previously described. To evaluate the effect of 2′-acetonaphthone treatments on worker survival, tunnel area and food consumption, an analysis of variance was conducted followed by a least significant difference procedure.

[1] = Coptotermes formosanus, 168 h, read-out: Mortality (%), day 7

**Q.** What does the source list for CC(=O)c1ccc2ccccc2c1 [2′-acetonaphthone]?
**A.** Food consumption (mg) day 12 (4.16 mg kg^−1, colony E): 27.1 ± 2.3 b mg; Molting failure (%), day 7 (4.16 mg kg^−1, colony E): 26.7 ± 6.0 a %; Survival (%) day 12 (4.16 mg kg^−1, colony E): 34.2 ± 6.0 a %; Termite (%), workers counted in the releasing chambers on day 5 (4.16 mg kg^−1, colony E): 34.9 ± 2.8 b %; Tunnel area (cm^2), day 12 (4.16 mg kg^−1, colony E): 22.8 ± 4.4 a cm^2; Food consumption (mg) day 12 (4.16 mg/kg, colony WB): 35.0 ± 13.8 a mg; Survival (%) day 12 (4.16 mg/kg, colony WB): 55.8 ± 7.3 a %; Tunnel area (cm^2), day 2 (4.16 mg/kg, colony WB): 3.4 ± 1.6 a cm^2; Tunnel area (cm^2), day 3 (4.16 mg/kg, colony WB): 6.1 ± 2.6 ab cm^2; Tunnel area (cm^2), day 4 (4.16 mg/kg, colony WB): 8.0 ± 2.7 ab cm^2; Tunnel area (cm^2), day 7 (4.16 mg/kg, colony WB): 17.0 ± 4.5 a cm^2; Food consumption (mg) day 12 (8.33 mg kg^−1, colony E): 0.0 ± 0.0 c mg; Molting failure (%), day 7 (8.33 mg kg^−1, colony E): 11.5 ± 1.9 b %; Survival (%) day 12 (8.33 mg kg^−1, colony E): 4.2 ± 1.9 b %; Termite (%), workers counted in the releasing chambers on day 5 (8.33 mg kg^−1, colony E): 77.9 ± 4.5 a %; Tunnel area (cm^2), day 12 (8.33 mg kg^−1, colony E): 2.8 ± 1.9 b cm^2; Food consumption (mg) day 12 (8.33 mg/kg, colony WB): 8.3 ± 3.1 b mg; Survival (%) day 12 (8.33 mg/kg, colony WB): 7.4 ± 3.3 b %; Tunnel area (cm^2), day 2 (8.33 mg/kg, colony WB): 2.3 ± 1.3 a cm^2; Tunnel area (cm^2), day 3 (8.33 mg/kg, colony WB): 3.1 ± 1.2 bc cm^2; Tunnel area (cm^2), day 4 (8.33 mg/kg, colony WB): 3.5 ± 1.3 bc cm^2; Tunnel area (cm^2), day 7 (8.33 mg/kg, colony WB): 4.5 ± 1.8 b cm^2; Food consumption (mg) day 12 (16.67 mg kg^−1, colony E): 0.0 ± 0.0 c mg; Molting failure (%), day 7 (16.67 mg kg^−1, colony E): 13.9 ± 1.2 b %; Survival (%) day 12 (16.67 mg kg^−1, colony E): 0.0 ± 0.0 b %; Termite (%), workers counted in the releasing chambers on day 5 (16.67 mg kg^−1, colony E): 78.6 ± 4.0 a %; Tunnel area (cm^2), day 12 (16.67 mg kg^−1, colony E): 0.0 ± 0.0 b cm^2; Survival (%) day 8 (16.67 mg/kg sand, colony BS): 6.8 ± 6.7 b %; Termite (%) day 6, percent workers in the releasing chambers (16.67 mg/kg sand, colony BS): 39.8 ± 8.8 b %; Tunnel area (cm^2) day 6 (16.67 mg/kg sand, colony BS): 1.4 ± 0.9 b cm^2; Consumption (mg) day 8 (16.67 mg/kg sand, colony BS): 3.3 ± 3.3 b mg; Food consumption (mg) day 12 (16.67 mg/kg, colony WB): 3.3 ± 2.1 b mg; Survival (%) day 12 (16.67 mg/kg, colony WB): 0.0 ± 0.0 b %; Tunnel area (cm^2), day 2 (16.67 mg/kg, colony WB): 0.9 ± 0.4 a cm^2; Tunnel area (cm^2), day 3 (16.67 mg/kg, colony WB): 1.6 ± 1.0 bc cm^2; Tunnel area (cm^2), day 4 (16.67 mg/kg, colony WB): 1.7 ± 1.0 c cm^2; Tunnel area (cm^2), day 7 (16.67 mg/kg, colony WB): 0.7 ± 0.5 b cm^2; Food consumption (mg) day 12 (33.33 mg kg^−1, colony E): 0.0 ± 0.0 c mg; Molting failure (%), day 7 (33.33 mg kg^−1, colony E): 15.9 ± 2.4 b %; Survival (%) day 12 (33.33 mg kg^−1, colony E): 0.0 ± 0.0 b %; Termite (%), workers counted in the releasing chambers on day 5 (33.33 mg kg^−1, colony E): 79.6 ± 2.2 a %; Tunnel area (cm^2), day 12 (33.33 mg kg^−1, colony E): 0.0 ± 0.0 b cm^2; Survival (%) day 8 (33.33 mg/kg sand, colony BS): 19.1 ± 9.1 b %; Termite (%) day 6, percent workers in the releasing chambers (33.33 mg/kg sand, colony BS): 39.8 ± 10.2 b %; Tunnel area (cm^2) day 6 (33.33 mg/kg sand, colony BS): 5.5 ± 2.1 b cm^2; Consumption (mg) day 8 (33.33 mg/kg sand, colony BS): 11.7 ± 8.2 b mg; Food consumption (mg) day 12 (33.33 mg/kg, colony WB): 3.3 ± 2.1 b mg; Survival (%) day 12 (33.33 mg/kg, colony WB): 0.1 ± 0.1 b %; Tunnel area (cm^2), day 2 (33.33 mg/kg, colony WB): 0.0 ± 0.0 a cm^2; Tunnel area (cm^2), day 3 (33.33 mg/kg, colony WB): 0.0 ± 0.0 c cm^2; Tunnel area (cm^2), day 4 (33.33 mg/kg, colony WB): 0.0 ± 0.0 c cm^2; Tunnel area (cm^2), day 7 (33.33 mg/kg, colony WB): 0.0 ± 0.0 b cm^2; Survival (%) day 8 (50.0 mg/kg sand, colony BS): 1.8 ± 1.8 b %; Termite (%) day 6, percent workers in the releasing chambers (50.0 mg/kg sand, colony BS): 31.2 ± 2.8 b %; Tunnel area (cm^2) day 6 (50.0 mg/kg sand, colony BS): 2.5 ± 1.1 b cm^2; Consumption (mg) day 8 (50.0 mg/kg sand, colony BS): 0.0 ± 0.0 b mg; Food consumption (mg) day 12 (66.67 mg/kg, colony WB): 4.2 ± 3.3 b mg; Survival (%) day 12 (66.67 mg/kg, colony WB): 0.0 ± 0.0 b %; Tunnel area (cm^2), day 2 (66.67 mg/kg, colony WB): 0.4 ± 0.2 a cm^2; Tunnel area (cm^2), day 3 (66.67 mg/kg, colony WB): 0.4 ± 0.2 c cm^2; Tunnel area (cm^2), day 4 (66.67 mg/kg, colony WB): 0.4 ± 0.2 c cm^2; Tunnel area (cm^2), day 7 (66.67 mg/kg, colony WB): 0.4 ± 0.2 b cm^2; Survival (%) day 8 (100.0 mg/kg sand, colony BS): 0.0 ± 0.0 b %; Termite (%) day 6, percent workers in the releasing chambers (100.0 mg/kg sand, colony BS): 79.8 ± 8.7 a %; Tunnel area (cm^2) day 6 (100.0 mg/kg sand, colony BS): 3.3 ± 1.6 b cm^2; Consumption (mg) day 8 (100.0 mg/kg sand, colony BS): 0.0 ± 0.0 b mg; Survival (%) day 8 (200.0 mg/kg sand, colony BS): 1.3 ± 1.3 b %; Termite (%) day 6, percent workers in the releasing chambers (200.0 mg/kg sand, colony BS): 81.8 ± 6.0 a %; Tunnel area (cm^2) day 6 (200.0 mg/kg sand, colony BS): 0.0 ± 0.0 b cm^2; Consumption (mg) day 8 (200.0 mg/kg sand, colony BS): 0.0 ± 0.0 b mg; mortality at 4.16 mg/kg [1]: 35.9 ± 4.4%; mortality at 8.33 mg/kg [1]: 71.8 ± 8.8%; mortality at 16.67 mg/kg [1]: 99.5 ± 0.5%; mortality at 33.33 mg/kg [1]: 100%; Food consumption (all treatments 16.67 to 200 mg/kg, control 98.3 mg, day 8): ≤ 11.7 mg; concentration giving significant reduction in tunneling and feeding activity (as low as): 8 mg/kg sand; concentration at which no food was consumed (colony BS, day 8): ≥ 50 mg/kg; concentration at which no termite reached the feeding chamber (colony E): > 8.16 mg/kg; concentration forming an effective barrier (toxic, inhibits tunneling and feeding) (treated sand): ≥ 8.33 mg/kg
